Reference: ChEMBL document CHEMBL5715954, “Silencing c-Myc translation as a therapeutic strategy through targeting PI3Kδ and CK1ε in hematological malignancies” (Blood, 2017)

Legend:
Design in all cases: scale not given: the % may be the effect or the level left
[1] = biological target: Calcium/calmodulin-dependent protein kinase type 1G (Homo sapiens) (UniProt Q96NX5); test: Inhibition of human CAMK1g assessed as enzyme activity at 1 uM using KKALRRQETVDAL as substrate preincubated for 20 mins followed by [gamma-33P]-ATP addition and measured after 120 mins by radiometric Hot-SpotSM Kinase assay relative to control
Calcium/calmodulin-dependent protein kinase type 1G (Homo sapiens), sequence (Q96NX5 whole entry): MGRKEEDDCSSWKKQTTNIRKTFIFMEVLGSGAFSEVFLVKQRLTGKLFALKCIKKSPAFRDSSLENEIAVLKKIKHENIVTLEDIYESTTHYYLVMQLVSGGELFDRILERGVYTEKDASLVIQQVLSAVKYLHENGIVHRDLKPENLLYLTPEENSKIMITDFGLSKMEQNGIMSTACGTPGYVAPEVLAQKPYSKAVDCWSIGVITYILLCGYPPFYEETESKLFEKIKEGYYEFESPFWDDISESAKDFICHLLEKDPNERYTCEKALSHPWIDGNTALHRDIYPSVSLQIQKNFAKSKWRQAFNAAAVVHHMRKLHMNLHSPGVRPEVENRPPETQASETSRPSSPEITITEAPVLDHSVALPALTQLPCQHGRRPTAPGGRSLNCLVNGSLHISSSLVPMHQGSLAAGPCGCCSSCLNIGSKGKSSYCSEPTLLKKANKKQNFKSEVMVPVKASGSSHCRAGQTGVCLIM

[2] = biological target: Cyclin-dependent kinase 1/cyclin B1 (Homo sapiens) (UniProt P06493+P14635); test: Inhibition of human CDK1/cyclin B assessed as enzyme activity at 1 uM using RB Protein as substrate preincubated for 20 mins followed by [gamma-33P]-ATP addition and measured after 120 mins by radiometric Hot-SpotSM Kinase assay relative to control; type: protein-complex assay
[3] = biological target: CDK6/cyclin D1 (Homo sapiens) (UniProt P24385+Q00534); test: Inhibition of human CDK6/cyclin D1 assessed as enzyme activity at 1 uM using RB Protein as substrate preincubated for 20 mins followed by [gamma-33P]-ATP addition and measured after 120 mins by radiometric Hot-SpotSM Kinase assay relative to control; type: protein-complex assay
[4] = biological target: Dual specificity protein kinase CLK3 (Homo sapiens) (UniProt P49761); test: Inhibition of human CLK3 assessed as enzyme activity at 1 uM using myelin basic protein as substrate preincubated for 20 mins followed by [gamma-33P]-ATP addition and measured after 120 mins by radiometric Hot-SpotSM Kinase assay relative to control
Dual specificity protein kinase CLK3 (Homo sapiens), sequence (P49761 whole entry, looked up): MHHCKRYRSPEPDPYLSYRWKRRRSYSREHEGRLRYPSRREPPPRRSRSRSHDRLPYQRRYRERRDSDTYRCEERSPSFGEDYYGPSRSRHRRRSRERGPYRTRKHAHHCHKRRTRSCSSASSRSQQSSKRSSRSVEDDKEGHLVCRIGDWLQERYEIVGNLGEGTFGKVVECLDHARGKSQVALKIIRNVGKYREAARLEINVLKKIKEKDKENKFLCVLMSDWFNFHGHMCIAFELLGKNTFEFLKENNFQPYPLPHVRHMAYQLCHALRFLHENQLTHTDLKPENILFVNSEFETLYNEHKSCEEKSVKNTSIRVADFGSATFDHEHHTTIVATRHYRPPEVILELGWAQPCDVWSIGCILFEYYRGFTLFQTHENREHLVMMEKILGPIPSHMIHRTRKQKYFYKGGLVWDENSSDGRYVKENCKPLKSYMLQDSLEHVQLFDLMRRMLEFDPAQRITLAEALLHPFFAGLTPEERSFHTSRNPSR

[5] = biological target: Tyrosine-protein kinase Fes/Fps (Homo sapiens) (UniProt P07332); test: Inhibition of human FES/FPS assessed as enzyme activity at 1 uM using poly[Glu:Tyr] (4:1) as substrate preincubated for 20 mins followed by [gamma-33P]-ATP addition and measured after 120 mins by radiometric Hot-SpotSM Kinase assay relative to control
Tyrosine-protein kinase Fes/Fps (Homo sapiens), sequence (P07332 whole entry): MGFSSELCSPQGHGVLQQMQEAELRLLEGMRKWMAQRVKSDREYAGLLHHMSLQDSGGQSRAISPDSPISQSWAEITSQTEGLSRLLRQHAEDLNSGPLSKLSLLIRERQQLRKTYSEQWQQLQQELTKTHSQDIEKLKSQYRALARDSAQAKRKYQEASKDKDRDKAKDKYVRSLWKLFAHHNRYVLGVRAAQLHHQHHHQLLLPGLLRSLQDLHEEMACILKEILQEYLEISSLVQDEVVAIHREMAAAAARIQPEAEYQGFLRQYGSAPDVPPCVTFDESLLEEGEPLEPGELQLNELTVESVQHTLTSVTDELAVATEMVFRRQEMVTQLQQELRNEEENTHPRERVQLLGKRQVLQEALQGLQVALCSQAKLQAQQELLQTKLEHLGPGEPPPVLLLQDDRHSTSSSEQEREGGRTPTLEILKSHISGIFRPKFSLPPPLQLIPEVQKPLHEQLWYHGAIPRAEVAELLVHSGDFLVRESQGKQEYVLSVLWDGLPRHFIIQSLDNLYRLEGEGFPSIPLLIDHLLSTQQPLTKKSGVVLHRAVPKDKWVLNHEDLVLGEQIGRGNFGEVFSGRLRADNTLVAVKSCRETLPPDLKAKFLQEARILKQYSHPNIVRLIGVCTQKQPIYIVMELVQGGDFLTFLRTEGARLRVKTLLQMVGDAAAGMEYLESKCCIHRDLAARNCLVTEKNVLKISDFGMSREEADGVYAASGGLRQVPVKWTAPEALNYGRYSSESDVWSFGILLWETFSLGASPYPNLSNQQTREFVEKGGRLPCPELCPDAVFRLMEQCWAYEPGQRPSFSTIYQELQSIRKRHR

[6] = biological target: T1, Serine/threonine-protein kinase LATS1 (Homo sapiens) (UniProt O95835); test: Inhibition of human LATS1 assessed as enzyme activity at 1 uM using KKRNRRLSVA as substrate preincubated for 20 mins followed by [gamma-33P]-ATP addition and measured after 120 mins by radiometric Hot-SpotSM Kinase assay relative to control
T1 sequence (whole entry): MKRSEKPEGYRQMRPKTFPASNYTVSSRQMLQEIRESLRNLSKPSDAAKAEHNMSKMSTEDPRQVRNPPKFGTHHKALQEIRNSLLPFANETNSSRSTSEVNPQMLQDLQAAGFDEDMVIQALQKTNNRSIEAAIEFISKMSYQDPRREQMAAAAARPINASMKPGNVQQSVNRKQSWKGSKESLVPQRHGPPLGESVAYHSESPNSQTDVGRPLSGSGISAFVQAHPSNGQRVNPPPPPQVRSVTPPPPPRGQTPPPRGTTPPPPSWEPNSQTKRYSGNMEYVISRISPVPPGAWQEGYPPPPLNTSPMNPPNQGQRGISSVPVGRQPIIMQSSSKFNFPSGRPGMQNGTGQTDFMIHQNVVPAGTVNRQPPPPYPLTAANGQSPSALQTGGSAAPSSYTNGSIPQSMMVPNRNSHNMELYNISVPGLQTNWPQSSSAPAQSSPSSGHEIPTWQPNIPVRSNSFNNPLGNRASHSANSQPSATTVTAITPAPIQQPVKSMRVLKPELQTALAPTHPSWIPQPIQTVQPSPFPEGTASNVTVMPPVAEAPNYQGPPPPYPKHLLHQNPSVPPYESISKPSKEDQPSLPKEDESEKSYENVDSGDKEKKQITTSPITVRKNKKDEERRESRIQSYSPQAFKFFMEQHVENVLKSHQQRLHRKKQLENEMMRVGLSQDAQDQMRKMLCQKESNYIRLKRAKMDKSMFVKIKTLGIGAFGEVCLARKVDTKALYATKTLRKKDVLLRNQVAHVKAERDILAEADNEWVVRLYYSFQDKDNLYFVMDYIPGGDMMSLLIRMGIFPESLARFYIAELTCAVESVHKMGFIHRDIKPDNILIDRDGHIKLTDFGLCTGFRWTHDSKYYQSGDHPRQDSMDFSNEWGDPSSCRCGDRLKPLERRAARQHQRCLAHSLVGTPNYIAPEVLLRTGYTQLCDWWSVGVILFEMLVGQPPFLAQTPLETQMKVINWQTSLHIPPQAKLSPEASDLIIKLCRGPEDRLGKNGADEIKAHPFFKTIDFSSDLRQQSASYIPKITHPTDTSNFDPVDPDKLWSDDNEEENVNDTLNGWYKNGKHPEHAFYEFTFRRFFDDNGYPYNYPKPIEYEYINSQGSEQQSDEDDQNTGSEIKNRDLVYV

[7] = biological target: T2, Dual specificity mitogen-activated protein kinase kinase 3 (Homo sapiens) (UniProt P46734); test: Inhibition of human MEK3 assessed as enzyme activity at 1 uM using p38a (K53A) as substrate preincubated for 20 mins followed by [gamma-33P]-ATP addition and measured after 120 mins by radiometric Hot-SpotSM Kinase assay relative to control
T2 sequence (whole entry): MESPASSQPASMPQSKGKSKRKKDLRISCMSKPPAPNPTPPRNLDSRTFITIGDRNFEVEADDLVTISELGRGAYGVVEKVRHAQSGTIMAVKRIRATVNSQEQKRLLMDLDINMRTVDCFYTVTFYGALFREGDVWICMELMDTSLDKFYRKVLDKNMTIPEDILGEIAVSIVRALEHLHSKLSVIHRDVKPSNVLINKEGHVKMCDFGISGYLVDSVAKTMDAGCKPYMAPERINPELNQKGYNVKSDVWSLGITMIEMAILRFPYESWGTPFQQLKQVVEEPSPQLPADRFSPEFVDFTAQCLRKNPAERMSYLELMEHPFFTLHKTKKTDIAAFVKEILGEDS

[8] = biological target: Protein kinase C alpha type (Homo sapiens) (UniProt P17252); test: Inhibition of human PKCa assessed as enzyme activity at 1 uM using ERMRPRKRQGSVRRRV as substrate preincubated for 20 mins followed by [gamma-33P]-ATP addition and measured after 120 mins by radiometric Hot-SpotSM Kinase assay relative to control
[9] = biological target: Ribosomal protein S6 kinase alpha-3 (Homo sapiens) (UniProt P51812); test: Inhibition of human RSK2 assessed as enzyme activity at 1 uM using KKLNRTLSVA as substrate preincubated for 20 mins followed by [gamma-33P]-ATP addition and measured after 120 mins by radiometric Hot-SpotSM Kinase assay relative to control
Ribosomal protein S6 kinase alpha-3 (Homo sapiens), sequence (P51812 whole entry): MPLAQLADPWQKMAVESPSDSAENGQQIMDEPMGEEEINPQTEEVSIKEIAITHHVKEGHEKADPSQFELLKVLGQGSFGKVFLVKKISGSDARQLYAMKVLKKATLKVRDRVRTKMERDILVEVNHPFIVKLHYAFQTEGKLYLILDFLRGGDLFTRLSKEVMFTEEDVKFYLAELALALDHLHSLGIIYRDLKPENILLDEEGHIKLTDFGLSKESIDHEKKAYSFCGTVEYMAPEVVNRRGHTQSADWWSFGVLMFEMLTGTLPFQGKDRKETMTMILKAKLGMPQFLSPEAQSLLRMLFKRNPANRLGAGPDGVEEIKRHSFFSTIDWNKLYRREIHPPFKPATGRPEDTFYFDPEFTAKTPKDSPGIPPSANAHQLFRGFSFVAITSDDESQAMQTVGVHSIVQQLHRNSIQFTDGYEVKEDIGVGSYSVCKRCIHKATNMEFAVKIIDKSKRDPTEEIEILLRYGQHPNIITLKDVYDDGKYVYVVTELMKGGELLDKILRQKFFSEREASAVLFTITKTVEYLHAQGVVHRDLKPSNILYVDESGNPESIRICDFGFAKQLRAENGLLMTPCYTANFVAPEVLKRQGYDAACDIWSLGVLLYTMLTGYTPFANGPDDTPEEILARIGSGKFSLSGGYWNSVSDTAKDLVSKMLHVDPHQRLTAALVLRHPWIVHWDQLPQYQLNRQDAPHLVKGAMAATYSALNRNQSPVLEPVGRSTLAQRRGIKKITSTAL

[10] = biological target: Leukocyte tyrosine kinase receptor (Homo sapiens) (UniProt P29376); test: Inhibition of human TYK1/LTK assessed as enzyme activity at 1 uM using EAIYAAPFAKKK as substrate preincubated for 20 mins followed by [gamma-33P]-ATP addition and measured after 120 mins by radiometric Hot-SpotSM Kinase assay relative to control
Leukocyte tyrosine kinase receptor (Homo sapiens), sequence (P29376 whole entry): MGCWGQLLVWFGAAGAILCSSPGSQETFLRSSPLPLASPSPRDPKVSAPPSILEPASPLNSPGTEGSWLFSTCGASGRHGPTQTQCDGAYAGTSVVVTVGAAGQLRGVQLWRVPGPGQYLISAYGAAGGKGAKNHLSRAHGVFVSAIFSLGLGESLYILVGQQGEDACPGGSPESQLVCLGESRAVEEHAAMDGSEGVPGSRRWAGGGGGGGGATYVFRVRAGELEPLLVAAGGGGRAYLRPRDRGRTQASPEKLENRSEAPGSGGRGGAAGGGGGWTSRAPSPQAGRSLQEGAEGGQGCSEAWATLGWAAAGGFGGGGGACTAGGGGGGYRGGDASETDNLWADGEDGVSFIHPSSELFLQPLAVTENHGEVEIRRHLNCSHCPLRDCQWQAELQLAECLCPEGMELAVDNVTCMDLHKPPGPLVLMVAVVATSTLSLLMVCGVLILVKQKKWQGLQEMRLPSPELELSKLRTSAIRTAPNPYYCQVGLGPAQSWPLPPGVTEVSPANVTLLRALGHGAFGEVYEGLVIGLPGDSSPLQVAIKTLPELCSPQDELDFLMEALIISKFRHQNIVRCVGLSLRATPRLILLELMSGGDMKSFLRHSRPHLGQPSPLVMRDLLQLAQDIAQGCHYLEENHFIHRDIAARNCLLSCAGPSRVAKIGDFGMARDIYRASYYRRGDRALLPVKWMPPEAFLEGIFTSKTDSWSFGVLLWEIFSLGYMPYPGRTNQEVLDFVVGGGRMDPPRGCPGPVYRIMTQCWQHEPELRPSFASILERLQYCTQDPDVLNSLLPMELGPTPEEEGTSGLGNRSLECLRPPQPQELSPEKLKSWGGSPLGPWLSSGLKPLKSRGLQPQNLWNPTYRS

[11] = biological target: Serine/threonine-protein kinase VRK2 (Homo sapiens) (UniProt Q86Y07); test: Inhibition of human VRK2 assessed as enzyme activity at 1 uM using casein as substrate preincubated for 20 mins followed by [gamma-33P]-ATP addition and measured after 120 mins by radiometric Hot-SpotSM Kinase assay relative to control
Serine/threonine-protein kinase VRK2 (Homo sapiens), sequence (Q86Y07 whole entry): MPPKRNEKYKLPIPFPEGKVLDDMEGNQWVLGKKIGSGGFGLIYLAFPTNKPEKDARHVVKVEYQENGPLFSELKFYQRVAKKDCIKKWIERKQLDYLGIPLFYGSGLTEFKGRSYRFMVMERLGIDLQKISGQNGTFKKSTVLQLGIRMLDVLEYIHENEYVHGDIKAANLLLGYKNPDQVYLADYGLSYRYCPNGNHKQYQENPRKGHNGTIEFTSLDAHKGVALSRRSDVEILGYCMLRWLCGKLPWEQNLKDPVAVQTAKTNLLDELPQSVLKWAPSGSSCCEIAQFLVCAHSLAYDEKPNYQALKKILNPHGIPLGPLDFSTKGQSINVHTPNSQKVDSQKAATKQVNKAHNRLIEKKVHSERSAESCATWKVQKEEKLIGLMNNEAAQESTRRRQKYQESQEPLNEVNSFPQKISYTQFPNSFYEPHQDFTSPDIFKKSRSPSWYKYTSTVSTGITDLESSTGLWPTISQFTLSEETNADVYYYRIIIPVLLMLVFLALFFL

Structure (SMILES)	Activity [1]	Activity [2]	Activity [3]	Activity [4]	Activity [5]	Activity [6]	Activity [7]	Activity [8]	Activity [9]	Activity [10]	Activity [11]
CC[C@H](Nc1ncnc2[nH]cnc12)c1nc2cccc(F)c2c(=O)n1-c1ccccc1	102%	102%	94.6%	89%	91.5%	95.4%	108%	103%	101%	94.8%	98.3%
C[C@H](Nc1ncnc2nc[nH]c12)c1cc2cccc(Cl)c2c(=O)n1-c1ccccc1	99.1%	97%	91.3%	92.3%	95.6%	99.8%	108%	116%	97.7%	97.4%	88.3%
CC(C)Oc1ccc(-c2nn([C@@H](C)c3oc4ccc(F)cc4c(=O)c3-c3cccc(F)c3)c3ncnc(N)c23)cc1F [UMBRALISIB]	98.9%	98.9%	89.2%	93.7%	97.5%	96.3%	105%	114%	106%	92.5%	87%
